Data: article PMC3772838, “Preclinical Development of a Novel Class of CXCR4 Antagonist Impairing Solid Tumors Growth and Metastases” (PLoS ONE, 2013)

Key:
CXCR7 = assay: Anti-CXCR7 antibody (clone 11G8) binding in CXCR7 overexpressing cells; design: species or system human; details: MCF-7 cells; peptides 10 µM, CXCL11 100 nM, 30 min pre-incubation; Figure S3
Description: [The procedure below names another target; the source says it served here with some conditions changed.] (§1) CXCR4 binding was evaluated as previously described. Briefly 5×10^5 CCRF–CEM cells were pre-incubated with 10 µM peptides or AMD3100 in binding buffer (PBS 1× plus 0.2% BSA and 0.1% NaN3) for 30 minutes at 37°C, 5% CO2 and then labeled for 30 minutes with anti-CXCR4 PE-antibody (FAB170P, clone 12G5, R&D Systems, Minneapolis, MN, USA). The cells were analyzed by FACS Canto II cytofluorometer (Becton Dickinson Immunocytometry Systems, Mountain View, CA, USA).
(§2) Fluo-3AM and Pluronic acid were added to each sample to increase Fluo-3AM solubility and improve dye loading into the cells. (TIF) Click here for additional data file.

CXCR3 = assay: Anti-CXCR3 antibody (clone 1C6/CXCR3) binding in CXCR3 overexpressing cells; design: species or system human; details: COLO205 cells; peptides 10 µM, CXCL11 100 nM, 30 min pre-incubation; Figure S3
Description: [The procedure below names another target; the source says it served here with some conditions changed.] as §1, §2

P-ERK1/2 = assay: CXCL12-induced p-ERK induction (immunoblotting); format: cell-based, human; details: PES43 cells serum-starved, CXCL12 100 ng/ml, after 5 minutes
Description: Cells were homogenized in lysis buffer (40 mM Hepes pH 7,5, 120 mM NaCl, 5 mM MgCl2, 1 mM EGTA, 0,5 mM EDTA, 1% Triton X-100) containing protease (Complete Tablets- EDTA-free, Roche) and phosphatase inhibitors (20 mM α-glycerol-3-phosphate, 2,5 mM Na-pyrophosphate). The following primary antibodies were used: anti-p-ERK (sc7383, Santa Cruz Biotechnology, Inc., Santa Cruz, CA, USA) and anti-ERK2 (sc 154G, Santa Cruz Biotechnology CA, USA). P-Erk induction was plotted as ratio P-Erk in the presence of CXCL12 (100 ng/ml)/P-Erk in serum free.
(§3) Experiments were conducted using PES43 cells. (A) Migration was assayed in 24-well Transwell chambers using inserts with 8-µm pore membrane. […] Migrated cells on the lower surface were fixed, stained with H&E and counted microscopically. The results are expressed as the migration index relative to migration in presence of BSA alone. […] Images were acquired with OKO Time Lapse. […] PES43 cells were serum-starved and incubated with CXCL12 (100 ng/ml) alone or in presence of AMD3100/peptides. Each peptide was tested in at least three different experiments. Double tailed T-Test was used for statistical analyses. Differences were considered significant at P<0.05 compared to control.
PES43 cell lines were serum starved for 16 hours. […] (TIF) Click here for additional data file.

[1] = system: PES43 human melanoma cells; assay: CXCL12-dependent Transwell migration of PES43 cells; format: cell-based; details: 100 ng/mL CXCL12 in lower chamber, 16 h, tested 10 nM, 100 nM, 1 µM, 10 µM
Description: (§4) Migration was assayed in 24-well Transwell chambers (Corning Inc., Corning, NY) using inserts with an 8-µm pore membrane. Membranes were precoated with collagen (human collagen type I/III) and fibronectin (20 µg/mL each). […] After 16 h incubation, cells on the upper surface of the filter were removed using a cotton wool swab; migration of cells in migration media alone was compared with migration in media containing CXCL12. The cells were counted in ten different fields (original magnification ×40). The migration index was defined as the ratio between migrating cells in the experimental group and migrated cells in the control group. For the wound closure assay, tested cells were allowed to reach confluence in six-well plates containing serum-depleted growth medium and scratched with pipette tips to make wounds. The wound closure was observed microscopically 6 hours post-wounding (OKO Time Lapse).
as §3

CXCR4 [2] = assay: CXCL12-induced calcium mobilization assay (Fluo-3 AM); format: cell-based, human; details: CCRF-CEM cells, 10 µM peptide, percent of fluorescence with CXCL12 alone; at least three experiments
Description: For the calcium efflux studies a 2 mg/mL stock solution of Fluo-3 acetoxymethylester (Invitrogen, Carlsbad, CA) in anhydrous DMSO was used. […] CCRF–CEM cells were resuspended in cell loading buffer (PBS, 1% FCS, 1 mmol/L MgCl2, and 1 mmol/L CaCl2) at 5×10^5 cells/mL. Fluo-3AM and Pluronic acid were added to each sample to increase Fluo-3AM solubility and improve dye loading into the cells. Baseline calcium efflux was established, then chemokines were added as indicated and chemokine-induced calcium efflux was measured.
(§5) (A) The amount of peptides or AMD3100 bound was assessed indirectly by flow cytometry using the PE-labelled anti-CXCR4 antibody (clone 12G5). Results are expressed as the percent antibody bound. (B) The Ca^2+ influx assay was performed using CCRF-CEM cells and Fluo-3 AM calcium indicator. CCRF-CEM cells were incubated 30 minutes at 37°C with Fluo-3 AM and 15 minutes with AMD3100 (10 µM)/peptides (10 µM) and then treated with CXCL12. Results are expressed as the percent of Fluo-3 AM fluorescence in presence of CXCL12 alone. Each peptide was tested in at least three different experiments. Double tailed T-Test was used for statistical analyses. Differences were considered significant at P<0.05 compared to control. Control (CTRL).

CXCR4 [3] = assay: Competition with 12G5 anti-CXCR4 antibody binding (flow cytometry); design: species or system human; details: CCRF-CEM cells, 10 µM peptide, 30 min pre-incubation at 37°C, PE-labelled 12G5, flow cytometry; at least three experiments
Description: as §1, §5

[4] = system: PES43 human melanoma cells; assay: CXCL12-mediated wound closure assay; format: cell-based; details: 6 hours post-wounding
Description: as §4, §3

[5] = system: B16-CXCR4 murine melanoma cells; assay: B16-CXCR4 melanoma lung metastases model; format: in vivo, C57BL/6 mice; details: cells pre-treated 30 min with 10 µM, IP once a day for 10 days, peptides 2 mg/kg, AMD3100 1.25 mg/kg
Description: (§6) All mice were obtained from Harlan (Bar Harbor, ME, USA) and their care was in accord with institutional guidelines. Twenty-five 6-8-week-old female C57BL/6 mice were inoculated into the tail vein with 5×10^5 B16–CXCR4 cells pre-treated for 30 minutes with peptide S (10 µM), peptide R (10 µM), peptide I (10 µM), or AMD3100 (10 µM). Six hours later intraperitoneal (IP) treatment started with AMD3100 (1.25 mg/kg) or each peptide (2 mg/kg) in sterile PBS once a day for 10 days. A week later the mice were sacrificed. The experiment was repeated three times. The lung metastases assay was also conducted with K7M2 murine osteosarcoma cells. Twenty-five 6-8-week-old female Balb/c mice were injected via tail vein with 2.5×10^5 K7M2 cells pre-treated for 30 minutes with AMD3100 (10 µM), peptide S (10 µM), peptide R (10 µM), peptide I (10 µM) and animals were treated IP daily for 15 days with 2.5 mg/kg for AMD3100 group and 10 mg/kg for each peptide groups. A week later the mice were sacrificed. Xenograft tumor growth was evaluated using pEGFP-SN12C cells in exponential growth phase subcutaneously injected into the right flank of twenty-five 6-8-week-old female CD1 nude mice. 2×10^6 SN12C-pEGFP were injected in the right flank of each mouse and treated with AMD3100 (1.25 mg/kg) and peptides (2 mg/kg) for 10 days ip. A week later mice were euthanized and tumor volume evaluated through Leica MacroFluo fluorescence stereomicroscope (Leica microsystem, Houston, TX). The experiment was repeated three times. The Istituto Nazionale per lo Studio e la Cura dei Tumori, Fondazione Giovanni Pascale Independent Etical Comettee approved the study (CEI/600/12).
(A) B16-CXCR4 tumor cells pre-treated for 30 minutes with AMD3100 (10 µM), peptide R (10 µM), peptide I (10 µM), or peptide S (10 µM) were inoculated into the tail vein of C57/B female mice and the mice were further treated intraperitoneally for 10 days with 1.25 mg/kg AMD3100, or 2 mg/kg peptide R, peptide I or peptide S. Gross examination of representative lungs; (B) Graphical representation of the number of lung metastases in treated mice. Double tailed T-Test was used for statistical analyses. The experiments were repeated three times.

[6] = system: SN12C-EGFP renal cancer cells; assay: SN12C-pEGFP subcutaneous xenograft tumor growth; format: in vivo, CD1 nude mice; details: IP 10 days, peptides 2 mg/kg, AMD3100 1.25 mg/kg; measured a week later by fluorescence stereomicroscope; control 65.97±35.1; average
Description: as §6
6 to 8-week-old female CD1 nude mice were injected subcutaneously with 2×10^6 pEGFP-SN12C cells pre-treated with 10 µM AMD3100 or 10 µM of each peptide. Beginning the following day mice were further treated intraperitoneally for 10 days with 1.25 mg/kg AMD3100 or 2 mg/kg of peptides R, I or S. A week later mice were euthanized and tumor volume evaluated directly from the flank of mice using a Leica MacroFluo fluorescence stereomicroscope (Leica microsystem, Houston, TX) (A). The experiments were repeated three times. B. SN12C-PEGFP cells migration toward CXCL12 in the presence of AMD3100 or Peptide R, S and I.

Row | Molecule | binding to CXCR7 (anti-CXCR7 antibody) (CXCR7) | binding to CXCR3 (anti-CXCR3 antibody) (CXCR3) | CXCL12-mediated p-ERK induction (P-ERK1/2) | concentration at which CXCL12-dependent migration was inhibited [1] [nM] | CXCL12-induced calcium efflux (Fluo-3 AM fluorescence) (CXCR4 [2]) | association of the 12G5-CXCR4 antibody to the receptor (CXCR4 [3]) | CXCL12-mediated wound healing [4] | fold reduction of the number of lung metastases vs control [5] [fold] | number of lung metastases ([5]; control 8.4±3.49, average) | tumor volume of SN12C-GFP xenograft [6] [mm^3]
1 | CXCL11: specific ligand (chemokine) that inhibited antibody binding to CXCR3 or CXCR7 | inhibited | inhibited | – | – | – | – | – | – | – | –
2 | Arg-Ala-[Cys-Arg-Tyr-Trp-Cys] [Peptide T] | – | – | not | ≤ 10 | 33.65 % of control | 22 % of control | delayed | – | – | –
3 | c1cc(CN2CCCNCCNCCCNCC2)ccc1CN1CCCNCCNCCCNCC1 [AMD3100, reference compound] | – | – | reduced | – | – | – | – | 5.6 | 1.5±2.9 | 35.53±10.42
